# “And” between values parts separate entries of the source, which are not always exact repeats. Equal entries are not always repeated.
row,SMILES,pKa
1,c1ccc(-c2ncc[nH]2)nc1,5.36
2,O=C(NCCCNC1CCCCC1)[C@H]1C[C@@H]1c1ccccc1,10.4
3,CS(=O)(=O)Nc1ccc(Nc2c3ccccc3nc3ccc(N)cc23)cc1,7.15
4,CC12CC3CC(C)(C1)CC(N)(C3)C2,10.4
5,CNC(=C[N+](=O)[O-])NCCSCc1ccc(CN(C)C)o1,8.47
6,Nc1ccc(Nc2c3ccccc3nc3ccccc23)cc1,8.36
7,COc1cccc(S(=O)(=O)Nc2cccn(CC(=O)NCc3ccc(C(=N)N)cc3Cl)c2=O)c1,9.4
8,CCC12CCC(=O)C=C1c1c(cc(OCC(=O)O)c(Cl)c1Cl)C2 (stereo not drawn),3.6
9,COc1cc(NS(C)(=O)=O)ccc1Nc1c2ccccc2nc2c(C(N)=O)cccc12,6.37
10,BP(=O)(OC[C@H]1O[C@@H](n2cnc3c(N)ncnc32)[C@H](O)[C@@H]1O)OP(=O)(O)C(Cl)(Cl)P(=O)(O)O (stereo partly drawn),7
11,O=c1[nH]c(=O)n([C@H]2C[C@H](O)[C@@H](CO)O2)cc1I,8.2
12,CN(C)C(=O)Oc1cccc([N+](C)(C)C)c1,19.1
13,O=C(c1nnc(-c2ccccc2)o1)N1CC(Oc2ccc(CN3CC4(COC4)C3)cc2)C1,8
14,CNc1cccc(Nc2c3ccccc3nc3ccccc23)c1,7.61
15,CC(=O)Nc1ccc2c(Nc3ccc(NS(C)(=O)=O)cc3)c3ccccc3nc2c1,7.34
16,Cc1nc2c(CCc3ccccc3)cccn2c1CC#N,6
17,CN(C)CCC1(Cc2ccc(C(C)(C)C)cc2)COC1,9.2
18,c1ccc(NC2=NCCN2)cc1,10.1
19,O=C1CC2(CCCC2)CC(=O)N1CCCCN1CCN(c2ncccn2)CC1,7.8
20,CS(=O)(=O)Nc1cccc(Nc2c3ccccc3nc3ccccc23)c1,6.85
21,CCOC(=O)c1ccc(OS(N)(=O)=O)cc1,8.22
22,CC12CC3(C)CC(C)(C1)CC(N)(C2)C3,10.6
23,COc1ccc(Nc2c3ccccc3nc3ccccc23)cc1,7.94
24,Fc1cccc(F)c1N=C1NCCN1,8.18

row,SMILES,pKa
1,CS(=O)(=O)Nc1ccc(Nc2c3ccccc3nc3c(C(N)=O)cccc23)cc1,6.12
2,CS(=O)(=O)Nc1ccc(Nc2c3ccccc3nc3cnccc23)cc1,5.32
3,O=c1n(CCCN2CCN(c3cccc(Cl)c3)CC2)nc2ccccn12,6.7 and 6.73 and 6.79
4,CN(C)c1ccc(Nc2c3ccccc3nc3ccccc23)cc1,8.46
5,CCCOC(=O)c1ccc(OS(N)(=O)=O)cc1,8.03
6,Br.Oc1noc2c1CNCC2,4.3
7,Cc1ccccc1Nc1c2ccccc2nc2ccccc12,7.76
8,NCCCF,9.9
9,Cc1ccc(S(=O)(=O)c2nc(N3CCc4ccccc4C3)sc2Cl)cc1,-3.78
10,NCCCC(F)(F)F,9.7
11,CCC1(c2ccccc2)C(=O)NC(=O)NC1=O,7.5
12,FC1CCCNC1 (stereo not drawn),9.3
13,O=C(c1ccc(Cl)cc1)c1ccc(OC2CN3CCC2CC3)cc1 (stereo not drawn),9.1
14,COc1cc(Nc2c3ccccc3nc3ccccc23)ccc1NS(C)(=O)=O,7.03
15,CCCC12CCC(=O)C=C1c1c(cc(OCC(=O)O)c(Cl)c1Cl)C2 (stereo not drawn),3.6
16,CCCn1c(=O)c2nc(-c3ccc(S(=O)(=O)NCCN(C)C)cc3)[nH]c2n(CCC)c1=O,8
17,C[C@H](CO)Nc1nc(SCc2cccc(F)c2F)nc2[nH]c(=O)sc12,6.7
18,Oc1cc(C2CCNCC2)sn1,10.7
19,O=C(O)CCc1ccc(Nc2c3ccccc3nc3ccccc23)cc1,7.91
20,CCN(CCN(CC(=O)O)CC(=O)O)CCN(CC(=O)O)CC(=O)O,2.8
21,Nc1ccccc1Nc1c2ccccc2nc2ccccc12,7.87
22,CCc1ncc[nH]1,7.73
23,Cc1ccc(NS(=O)(=O)Cc2ccccc2)c(=O)n1CC(=O)NCc1ccc(C(=N)N)cc1,10.2
24,Fc1ccc(Nc2c3ccccc3nc3ccccc23)cc1,7.5

row,SMILES,pKa
1,Clc1cc(Br)cc(Cl)c1N=C1NCCN1,7.72
2,O=C(O)CCCc1ccc(N(CCCl)CCCl)cc1,5.8
3,CCOC(=O)c1ccc(N)cc1,2.5
4,Cc1cccc2nc3ccccc3c(Nc3ccc(NS(C)(=O)=O)cc3)c12,6.43
5,Cc1ccc(NS(=O)(=O)Cc2ccccc2)c(=O)n1CC(=O)NCc1ccc(C(=N)N)s1,10.3
6,Cc1c(-c2noc(-c3ccc(OC(C)C)c(C#N)c3)n2)ccc2c1CCN(C(CO)CO)C2,7.3
7,CN1CC(C)(c2cccc(NC(=O)c3ccc(Cl)cn3)c2)N=C(N)C1=O (stereo not drawn),7.6
8,CNCC[C@@H](Oc1ccccc1C)c1ccccc1,10.1
9,C[C@H](O)c1nccc(N2C[C@@H](C)N(c3ccnc([C@@H](C)O)n3)[C@@H](C)C2)n1,6
10,CS(=O)(=O)Nc1ccc(Nc2c3ccccc3nc3c([N+](=O)[O-])cccc23)cc1,4.88
11,COc1ccc(C(CCCN)(c2ccccc2)c2ccccc2)cc1,9.86
12,CN(C)CCCN1c2cc(F)ccc2CCc2ccc(F)cc21.Cl,7.6
13,CO/N=C(\C#N)C1CN2CCC1CC2 (stereo not drawn),8.96
14,FC1(F)CCCNC1,7.4
15,O=C(c1ccc(C(F)(F)F)cc1)N1CCC(=Cc2ccc(C3=NCCO3)cc2)CC1,4.7
16,Nc1nc2ccccc2[nH]1,7.5
17,CC12CC3CC(C1)CC(N)(C3)C2,10.6
18,CN(C)C(C)(C)CCCc1ccc(C(C)(C)C)cc1,10.4
19,Cc1cnc(NCCc2ccccc2)c(=O)n1CC(=O)NCc1ccc(C(=N)N)cc1,10.2
20,COc1cc(NS(C)(=O)=O)ccc1Nc1c2ccccc2nc2c(Cl)cccc12,6.11
21,CCCCCS(=O)(=O)NCCCc1ccc(OCCOC)cc1Oc1ncc(C(F)(F)F)cc1Cl,17.5
22,c1nc[nH]n1,2.19
23,O=S1NC(CCc2ccccc2)=NO1 (stereo not drawn),5.23
24,Fc1cccc(Cl)c1N=C1NCCN1,8.01

row,SMILES,pKa
1,NC(=O)Cc1ccc(Nc2c3ccccc3nc3ccccc23)cc1,7.43
2,Cc1ccc2c(Nc3ccc(NS(C)(=O)=O)cc3)c3ccccc3nc2c1,7.49
3,CC(=O)N[C@@H](Cc1cc(F)cc(F)c1)[C@H](O)CNC1(c2cccc(C(C)(C)C)c2)CC1,6.6
4,CS(=O)(=O)Nc1ccc(Nc2c3ccccc3nc3cc([N+](=O)[O-])ccc23)cc1,5.52
5,O=C(C1CCN(c2ccncc2)CC1)N1CCN(S(=O)(=O)c2ccc(Br)cc2)CC1,9.2
6,Oc1nsc2c1CCNC2,8.5
7,Cc1ccc(NS(=O)(=O)Cc2ccccc2)c(=O)n1CC(=O)NCc1cnc(N)cn1,2.7
8,CCCOC(=O)CN(CCN(CCN(CC(=O)O)CC(=O)O)CC(=O)O)CC(=O)O,1.8
9,N[C@@H]1C[C@]1(F)c1ccccc1,6.98
10,Cc1nc(C)nc(N2C[C@@H](C)N(c3ccnc([C@@H](C)O)n3)[C@@H](C)C2)n1,4.8
11,Brc1cccc(Br)c1N=C1NCCN1,7.8
12,FC1CCNCC1,9.4
13,CN(C)CCN=C(O)c1cccc2cc3ccccc3nc12,3.54
14,C[C@]12CC[C@H]3[C@@H](CCC4=CC(=O)CC[C@@]43C)[C@@H]1CC[C@@H]2O,4.48
15,CN1CCN2c3ccccc3Cc3ccccc3C2C1 (stereo not drawn),7.1
16,COC(=O)Nc1ccccc1Nc1c2ccccc2nc2ccccc12,7.24
17,OB(O)C1=CCCS1,7.16
18,Cc1cccc(Cl)c1N=C1NCCN1,9.4
19,Cc1cnc(NCCc2ccccc2)c(=O)n1CC(=O)NCc1cnc(N)cn1,2.7
20,Oc1cc(C2CCNCC2)on1,10.3
21,CN1CCN2c3ncccc3Cc3ccccc3C2C1 (stereo not drawn),7.3
